Source: patent publication US20060276340A1, “HERBICIDE COMPOSITION COMPRISING PYRIBAMBENZ-PROPYL OR PYRIBAMBENZ-ISOPROPYL” (Zhejiang Chem-Tech Group Co., Ltd., priority 2003, published 2006)

Columns and labels:
Format in all cases: in vivo
Galium aparine [1] = experiment: greenhouse pot test, post-emergence early stage treatment
Experimental: (§1) The test soil is a formulated sandy loam soil. 9.5 centimeter diameter pots are used for herbicidal activity test.
(§2) The pots for post-emergence treatment are placed into a greenhouse and incubated for 7 to 9 days, and then subjected to leave treatment by spraying. The preparation liquid for the treatment prepared by mixing individual single-herbicides was diluted with water to the desired dosage.
(§3) The treated pots stood for one day, then were placed in a greenhouse and watered regularly. The herbicidal activities of the compositions were evaluated by visual examination after incubating for 14 to 21 days.
(§4) The herbicidal activities of the compositions were evaluated by plant symptoms such as stunting, deformity, chlorosis, and whitening. 0 represents that the compositions have no herbicidal effect or have safety to crops. 100 represents that the weeds or crops were completely killed.

Poa annua [2] = experiment: as above
Experimental: as §1, §2, §3, §4

Alopercurus japonicus [3] = experiment: as above; details: ALOJA
Experimental: as §1, §2, §3, §4

Cerastium arvense = experiment: as above
Experimental: as §1, §2, §3, §4

Galium aparine [4] = experiment: greenhouse pot test, post-emergence treatment; details: GALAP
Experimental: as §1, §2, §3, §4

Poa annua [5] = experiment: greenhouse pot test, post-emergence treatment; details: POAAN
Experimental: as §1, §2, §3, §4

Veronica didyma = experiment: greenhouse pot test, post-emergence treatment; details: VERDI
Experimental: as §1, §2, §3, §4

Alopercurus japonicus [6] = experiment: greenhouse pot test, post-emergence treatment; details: ALOJA
Experimental: as §1, §2, §3, §4

weeds in rape field = experiment: weed control in rape field, descriptive statements
Beckmannia syzigachne [7] = experiment: greenhouse pot test, post-emergence early stage treatment; details: BECSY 2˜3 leaves
Experimental: as §1, §2, §3, §4

Poa annua [8] = experiment: greenhouse pot test, Tables 1-2; details: POAAN 3 leaves
Experimental: as §1
(§5) The soil in the pot for the pre-emergence test was sprayed one day after planting. The preparation liquid for the treatment prepared by mixing individual single-herbicides was diluted with water to the desired dosage.
as §2, §3, §4

Beckmannia syzigachne [9] = experiment: greenhouse pot test, Tables 1-2; details: BECSY 2 leaves
Experimental: as §1, §5, §2, §3, §4

Digitrria sanguinalis = experiment: greenhouse pot test, Tables 1-2; details: DIGSA 3 leaves
Experimental: as §1, §5, §2, §3, §4

Polypogon fugax = experiment: greenhouse pot test, Tables 1-2; details: POLFU 3-4 leaves
Experimental: as §1, §5, §2, §3, §4

Alopecurus aequalis = experiment: greenhouse pot test, Tables 1-2
Experimental: as §1, §5, §2, §3, §4

CCOCN(C(=O)CCl)c1c(C)cccc1CC [acetochlor]
visual evaluation of weed effects (Galium aparine [1]; GALAP, 150 g/ha): 40% | visual evaluation of weed effects (Galium aparine [1]; GALAP, 300 g/ha): 50% | visual evaluation of weed effects (Galium aparine [1]; GALAP, 450 g/ha): 60% | visual evaluation of weed effects (Galium aparine [1]; GALAP, 600 g/ha): 70% | visual evaluation of weed effects (Poa annua [2]; POAAN, 150 g/ha): 70% | visual evaluation of weed effects (Poa annua [2]; POAAN, 300 g/ha): 90% | visual evaluation of weed effects (Poa annua [2]; POAAN, 450 g/ha): 95% | visual evaluation of weed effects (Poa annua [2]; POAAN, 600 g/ha): 95% | visual evaluation of weed effects (Alopercurus japonicus [3]; 150 g/ha): 60% | visual evaluation of weed effects (Alopercurus japonicus [3]; 300 g/ha): 90% | visual evaluation of weed effects (Alopercurus japonicus [3]; 450 g/ha): 95% | visual evaluation of weed effects (Alopercurus japonicus [3]; 600 g/ha): 95% | visual evaluation of weed effects (Cerastium arvense; CERAR, 150 g/ha): 70% | visual evaluation of weed effects (Cerastium arvense; CERAR, 300 g/ha): 85% | visual evaluation of weed effects (Cerastium arvense; CERAR, 450 g/ha): 85% | visual evaluation of weed effects (Cerastium arvense; CERAR, 600 g/ha): 85%

O=C(O)Cn1c(=O)sc2cccc(Cl)c21 [benazolin]
visual evaluation of weed effects (Galium aparine [4]; 75 g/ha): 70% | visual evaluation of weed effects (Galium aparine [4]; 150 g/ha): 90% | visual evaluation of weed effects (Galium aparine [4]; 225 g/ha): 100% | visual evaluation of weed effects (Galium aparine [4]; 300 g/ha): 100% | visual evaluation of weed effects (Poa annua [5]; 75 g/ha): 0% | visual evaluation of weed effects (Poa annua [5]; 150 g/ha): 0% | visual evaluation of weed effects (Poa annua [5]; 225 g/ha): 0% | visual evaluation of weed effects (Poa annua [5]; 300 g/ha): 0% | visual evaluation of weed effects (Veronica didyma; 75 g/ha): 60% | visual evaluation of weed effects (Veronica didyma; 150 g/ha): 90% | visual evaluation of weed effects (Veronica didyma; 225 g/ha): 98% | visual evaluation of weed effects (Veronica didyma; 300 g/ha): 100% | visual evaluation of weed effects (Alopercurus japonicus [6]; 75 g/ha): 0% | visual evaluation of weed effects (Alopercurus japonicus [6]; 150 g/ha): 0% | visual evaluation of weed effects (Alopercurus japonicus [6]; 225 g/ha): 0% | visual evaluation of weed effects (Alopercurus japonicus [6]; 300 g/ha): 0%

CCOC(=O)C(C)Oc1ccc(Oc2cnc3cc(Cl)ccc3n2)cc1 (centres unmarked) [quizalofop-ethyl]
weed control (weeds in rape field; Poa annua): weak activity | weed control (weeds in rape field; most of grasses, even herbicide-resistant sclerochloa kengiana and Beckmannia syzigachne): excellent control | visual evaluation of weed effects (Galium aparine [1]; GALAP 7˜8 leaves, quizalofop-ethyl 6 g/ha): 0% | visual evaluation of weed effects (Galium aparine [1]; GALAP 7˜8 leaves, quizalofop-ethyl 9 g/ha): 0% | visual evaluation of weed effects (Galium aparine [1]; GALAP 7˜8 leaves, quizalofop-ethyl 12 g/ha): 0% | visual evaluation of weed effects (Galium aparine [1]; GALAP 7˜8 leaves, quizalofop-ethyl 15 g/ha): 0% | visual evaluation of weed effects (Poa annua [2]; POAAN 2˜3 leaves, quizalofop-ethyl 6 g/ha): 0% | visual evaluation of weed effects (Poa annua [2]; POAAN 2˜3 leaves, quizalofop-ethyl 9 g/ha): 0% | visual evaluation of weed effects (Poa annua [2]; POAAN 2˜3 leaves, quizalofop-ethyl 12 g/ha): 50% | visual evaluation of weed effects (Poa annua [2]; POAAN 2˜3 leaves, quizalofop-ethyl 15 g/ha): 60% | visual evaluation of weed effects (Beckmannia syzigachne [7]; quizalofop-ethyl 6 g/ha): 98% | visual evaluation of weed effects (Beckmannia syzigachne [7]; quizalofop-ethyl 9 g/ha): 100% | visual evaluation of weed effects (Beckmannia syzigachne [7]; quizalofop-ethyl 12 g/ha): 100% | visual evaluation of weed effects (Beckmannia syzigachne [7]; quizalofop-ethyl 15 g/ha): 100% | visual evaluation of weed effects (Cerastium arvense; CERAR 3˜4 leaves, quizalofop-ethyl 6 g/ha): 0% | visual evaluation of weed effects (Cerastium arvense; CERAR 3˜4 leaves, quizalofop-ethyl 9 g/ha): 0% | visual evaluation of weed effects (Cerastium arvense; CERAR 3˜4 leaves, quizalofop-ethyl 12 g/ha): 0% | visual evaluation of weed effects (Cerastium arvense; CERAR 3˜4 leaves, quizalofop-ethyl 15 g/ha): 0% | visual evaluation of weed effects (Poa annua [8]; 6 g/ha): 0% | visual evaluation of weed effects (Poa annua [8]; 9 g/ha): 10% | visual evaluation of weed effects (Poa annua [8]; 12 g/ha): 10% | visual evaluation of weed effects (Poa annua [8]; 15 g/ha): 10% | visual evaluation of weed effects (Beckmannia syzigachne [9]; 6 g/ha): 95% | visual evaluation of weed effects (Beckmannia syzigachne [9]; 9 g/ha): 95% | visual evaluation of weed effects (Beckmannia syzigachne [9]; 12 g/ha): 98% | visual evaluation of weed effects (Beckmannia syzigachne [9]; 15 g/ha): 98% | visual evaluation of weed effects (Digitrria sanguinalis; 6 g/ha): 100% | visual evaluation of weed effects (Digitrria sanguinalis; 9 g/ha): 100% | visual evaluation of weed effects (Digitrria sanguinalis; 12 g/ha): 100% | visual evaluation of weed effects (Digitrria sanguinalis; 15 g/ha): 100% | visual evaluation of weed effects (Polypogon fugax; 6 g/ha): 30% | visual evaluation of weed effects (Polypogon fugax; 9 g/ha): 100% | visual evaluation of weed effects (Polypogon fugax; 12 g/ha): 100% | visual evaluation of weed effects (Polypogon fugax; 15 g/ha): 100% | visual evaluation of weed effects (Alopecurus aequalis; ALOAE 0 leaf, 6 g/ha): 85% | visual evaluation of weed effects (Alopecurus aequalis; ALOAE 0 leaf, 9 g/ha): 85% | visual evaluation of weed effects (Alopecurus aequalis; ALOAE 0 leaf, 12 g/ha): 85% | visual evaluation of weed effects (Alopecurus aequalis; ALOAE 0 leaf, 15 g/ha): 85% | visual evaluation of weed effects (Alopecurus aequalis; ALOAE 3 leaves, 6 g/ha): 98% | visual evaluation of weed effects (Alopecurus aequalis; ALOAE 3 leaves, 9 g/ha): 100% | visual evaluation of weed effects (Alopecurus aequalis; ALOAE 3 leaves, 12 g/ha): 100% | visual evaluation of weed effects (Alopecurus aequalis; ALOAE 3 leaves, 15 g/ha): 100%
